Earlier results on 2 compounds are cited in patent US8883820B2, “Triazole derivatives as kinase inhibitors” (Cellzome Ltd., priority 2006, dated 2014).

Series [1] relates to lymphocyte-dependent rheumatoid arthritis induced by direct collagen II injection. The following applies: oral.
Series [2] concerns systemic lupus erythematosus (SLE). To be noted: intraperitoneal administration.
Series [3] deals with collagen II-antibody-induced arthritis. The following applies: oral, wildtype mice.

Regarding `O=C1NC(=O)/C(=C\c2ccc3nccnc3c2)S1` [AS-605240], the “joint inflammation and damage” value in series [1] was “decreased joint inflammation and damage”. In series [2], the “CD4+ T-cell populations” value was “reduced CD4+ T-cell populations”, the glomerulonephritis result is given as “reduced glomerulonephritis” and the life span result was “prolonged life span”. For the same compound, the “clinical and histologic signs of collagen II-antibody-induced arthritis” value in series [3] is “reduced clinical and histologic signs”.

As for `Nc1nc(N)c2nc(-c3cccc(O)c3)c(-c3cccc(O)c3)nc2n1` [TG100-115], the cardioprotection entry with myocardial infarction (dosing after myocardial reperfusion (up to 3 hours after)) was “provided cardioprotection”. Moreover, the “edema and inflammation in response to multiple mediators” value with myocardial infarction (in vivo) is given as “potently inhibits”.
